Laboratory results taken from patent US9290427B2, “Anti-invasive compounds” (Universiteit Gent, priority 2012, dated 2016).

How the values were obtained:
[1] = tested on: 3T3-L1 cells; assay: SRB test, 3T3-L1; type: cell-based, murine; conditions: 10 μmol·L−1, 24 h, decreasing trend, not significant
Experimental: (§1) The SRB assay is used to evaluate growth effects on cells, and measures the total protein content. In this test, 5,000 cells are seeded in a cup of a 96-well plate. Upon a 24 h-attachment period, cells are treated with a certain amount of the test molecule (dissolved in DMSO). After a pre-chosen incubation time, cells are fixed with 50 μL of 50% trichloroacetic acid (2° C., 1 h). Afterward, the plate is rinsed five times with tap water, and air dried overnight.
(§2) Next, proteins are stained with 75 μL of a 0.4% solution of SRB in AcOH (30 min). Unbound SRB is subsequently removed by washing with a 1% solution of glacial AcOH, whereupon the plate is air dried. Then, bound SRB is redissolved in 100 μL of a 10 mmol·L^−1 tris(hydroxymethyl)aminomethane (Tris) buffer (pH=10.5), after which optical density is determined at 490 nm with a spectrophotometer.
(§3) In order to verify whether the antiproliferative effects of compound 49, witnessed in BLM and MCF-7/6 cells at high concentrations, were cell specific, additional SRB and MTT assays on a further five cell lines (HCT8-E11, TR146, FaDu, 3T3-L1 and CT5.3) were conducted (FIG. 8). The results for MCF-7/6 cells were added to facilitate comparison.
The CT5.3 cell line consists of human myofibroblasts which were isolated from a colon tumor (Van Hoorde et al., 1999). […]

[2] = tested on: MCF-7/LucF5 cells; assay: SRB test, MCF-7/LucF5; type: cell-based, human
Experimental: as §1, §2
In order to further validate the use of the MCF-7/LucF5 cells in our in vivo experiments, the effects of 4-fluoro-3′,4′,5′-trimethoxychalcone on this cell line in the MTT and SRB assays were determined as well (Van Hoorde L. et al., 1999).

[3] = tested on: HCT8-E11 colon carcinoma cells; assay: MTT test, HCT8-E11; type: cell-based, human
Experimental: (§4) An MTT test provides an indication of cell viability, proliferation and activity through determination of the mitochondrial conversion of 3-(4,5-dimethylthiazol-2-yl)-2,5-diphenyltetrazolium bromide (MTT), a yellow salt, into formazan, a salt that precipitates under the form of blue crystals.
(§5) In concreto, 5,000 cells are seeded in a cup of a 96 well-plate, treated with the desired amount of the test substance, and incubated for a chosen period of time. Next, 40 μL of a filtered (0.2 μm) 5 mg·mL^−1 solution of MTT in PBS is added to the cup. After 2 h of incubation at 37° C. in the dark, all liquid is removed. The obtained formazan salts are dissolved in 200 μL of DMSO, whereupon optical density is measured at 490 nm.
as §3
(§6) The CT5.3 cell line consists of human myofibroblasts which were isolated from a colon tumor (Van Hoorde et al., 1999). 3T3-L1 cells are murine fibroblasts, originating from embryo's of Swiss mice (Todaro and Green, 1963). HCT8-E11, FaDu and TR146 are human epithelial cancer cell lines. […]

[4] = tested on: TR146 cells; assay: MTT test, TR146; type: cell-based, human
Experimental: as §4, §5, §3, §6

[5] = tested on: MCF-7/6 cells; assay: Sulforhodamine B (SRB) test, MCF-7/6; type: cell-based, human
Experimental: as §1, §2
Besides, also an SRB assay was performed. This test is based on the ability of the dye sulforhodamine B (SRB) to bind electrostatically on basic amino acid residues of protein in trichloroacetic acid-fixed cells. Results obtained in the SRB assay are linearly proportional to the amount of cellular protein and thus to the cell number.

[6] = tested on: MCF-7/6 mammary carcinoma cell line; assay: in vivo survival study after intracardial injection of MCF-7/6 cells; parameters: species or system Swiss nu/nu mice; conditions: for # at risk / # deaths / psurv: 10 nmol i.p. thrice a week; for pcum: cumulative probability of survival
Experimental: In order to evaluate the in vivo potency of 4-fluoro-3′,4′,5′-trimethoxychalcone 49 against the MCF-7/6 mammary carcinoma cell line, a broadly used metastasis experiment involving intracardial injection of the cancer cells was conducted. One week after subcutaneous implantation of an estrogen pellet (1 mg) in the dorsal region of the neck, […] Swiss nu/nu mice were injected in the left cardiac ventricle with 1.10^5 MCF-7/6 cells under xylazine and ketamine anesthesia (Smith W., 1993).
By virtue of injection into the left cardiac ventricle, cancer cells directly enter systemic arterial circulation, which enhances the chance for colonization (Arguello et al., 1988). […] However, since these metastases are difficultly detectable and quantifiable, survival time was chosen as the sole end point in this study.
Upon inoculation, mice were divided randomly into two equal groups. One cohort was intraperitoneally injected with 10 nmol of 49 thrice a week (160 μg·kg^−1 for a 20 g animal), while the other group only received the vehicle (100 μL of serum-free DMEM containing 1:1000 DMSO).
Twenty 6-week old female Swiss nu/nu mice were given a subcutaneous estrogen implant (1 mg) in the dorsal region of the neck. One week later, intracardial injection of 100,000 MCF-7/6 cells in […] of PBS^D^+ was performed. Animals were anesthesized priorly by i.p. injection of xylazine (5 μL, Rompun®) and ketamine (36 μL, Ketalar®). Intracardial injection was performed with a 30 G needle (½″), which was introduced into the thoracic cavity underneath the sternum. Upon protrusion of the wall of the left ventricle, blood is pumped into the syringe. At this moment, careful injection of the cancer cells can be conducted. Next, mice were randomly divided into a vehicle control and a 49-treated cohort.
From the inoculation date on, mice were treated i.p. three times a week with 100 μL of a 100 μmol·L^−1 solution of 49 in serum-free DMEM containing 1:1000 DMSO, or with vehicle alone (see “preparation procedure”). Survival numbers for both cages were recorded on a daily basis.
“Preparation procedure”: for the 49-treated group, 100 mmol·L^−1 solutions of 49 in DMSO were freshly prepared on each injection day, and diluted 1:1000 with serum-free DMEM so as to obtain injectable solutions of 100 μmol·L^−1 of 49. Control mice were given i.p. injections with 100 μL of the vehicle (1:1000 DMSO in serum-free DMEM).

[7] = elevated concentrations 10-100 μmol·L−1, summary

## COc1cc(C(=O)/C=C/c2ccc(F)cc2)cc(OC)c1OC [Compound 49, (2E)-3-(4-Fluorophenyl)-1-(3,4,5-trimethoxyphenyl)propenone]
[1]
  change in total protein content: −20%
[2]; 1 and 0.1 μmol·L−1, 72 h (p=0.0703 and 0.0538)
  cell count: marginally significant reduction
[2]; 100 or 10 μmol·L−1, 72 h (p=0)
  total protein content: significant reduction
[2]; [7]
  reduction in total protein content: ~50%
[3]; 10 μmol·L−1, 24 h
  reduction in mitochondrial activity: 40%
[3]; [7]
  reduction in mitochondrial activity: ~50%
[4]; 1 μmol·L−1, 24 h
  increase in mitochondrial activity: 7%
[4]; 10 μmol·L−1, 24 h
  reduction in mitochondrial activity: 30%
[5]; 1 μmol·L−1, FIG. 6
  number of cells: smaller but still significant reduction
[5]; 10 μmol·L−1, 24 h, decreasing trend, not significant
  change in total protein content: −10%
[5]; 100 and 10 μmol·L−1, FIG. 6 (72 and 144 h), p<0.01
  total protein content relative to solvent control: significant reduction
[5]; [7]
  reduction in total protein content: ~50%
[6]; Day 5
  # at risk: 10
  # deaths: 1
  psurv: 0.9
  pcum: 0.9
[6]; Day 40
  # at risk: 9
  # deaths: 1
  psurv: 0.89
  pcum: 0.8
[6]; Day 61
  # at risk: 8
  psurv: 1
  pcum: 0.8
